Assay: Bioavailability of zinc after administration to the duodenum of rats (plasma zinc AUC vs intravenous zinc acetate)
Details: for absorption promoting action (in words): 10 mg/kg
Experimental: Wistar rats of 8 weeks age were used in this experiment. The rats were fasted for 24 hours before administration of zinc acetate alone, a mixture of zinc acetate and a dipeptide listed in Table 1 at a molar ratio of dipeptide to zinc of 1:1, or a complex of zinc and L- or D-carnosine at a molar ratio of dipeptide to complex of 1:1. Each test composition was administered to the duodenum of ether-anesthetized rat as a solution or suspension in physiological saline. The dose of the composition was 10 mg/kg body weight as zinc in each case. Blood samples were collected before administration, and 1,3,5 and 7 hours after the administration. Plasma levels of zinc were determined using Zn Test Wako Kit (available from Wako Pure Chemical Industries, Ltd.). […] The bioavailability (BA) of zinc was calculated by the above comparison.
Using the same method as above, the bioavailability of zinc was determined at varying molar ratios of L-carnosine to zinc from zero to 30. The results are shown in FIG. 1 of the accompanying drawings.
The dose of a 1:1 molar mixture of L-carnosine and zinc acetate was varied from 3 mg/kg to 100 mg/kg in terms of zinc. Analogous to Part 1, AUCs and bioavalabilities were determined and compared with those of administration of zinc acetate alone. The results are shown in FIG. 2 of the accompanying drawing.

Row | BA (%) bioavailability of zinc (rat, in vivo) [%] | Compound | absorption promoting action (in words) (rat, in vivo) | other results
1 | 11.7 ± 0.4 | L-carnosine zinc complex | – | –
2 | 6.7 ± 0.8 | D-carnosine zinc complex | – | –
3 | – | CC(=O)[O-].CC(=O)[O-].[Zn+2] [Zinc acetate] | – | BA (%) bioavailability of zinc (fasted Wistar rats, administered to the duodenum, 10 mg/kg as zinc, dipeptide:zinc 1:1, AUC up to 7 hours vs i.v. zinc acetate 1 mg/kg): 8.6 ± 0.3%
4 | – | NCCC(=O)N[C@H](Cc1cnc[nH]1)C(=O)O [D-carnosine] | not | –
5 | – | NCCC(=O)N[C@@H](Cc1cnc[nH]1)C(=O)O [L-carnosine, N-β-alanyl-L-histidine] | exhibited a similar absorption promoting action | bioavailability of zinc at varying molar ratios of L-carnosine to zinc (FIG. 1) (rat, in vivo): increased with increase in the molar ratio

Reference: patent US20020150629A1, “Zinc-supplementary compositions for oral administration” (priority 2000, published 2002)
